Laboratory results as given in US7754896B2, “Indol-alanine derivatives as selective S1P4-agonists” (Novartis AG, priority 2004, dated 2010).

Experiments:
Format in all cases: biochemical
CHO = experiment: GTPγS binding assay, membranes of wild type CHO cells
Procedure: Membrane proteins are prepared from wild type CHO-K1 and the CHO cell clones expressing human S1P4. To obtain 10-30 mg of membrane proteins, cells are grown in one large culture dish (500 cm^2) per cell clone to 80 and 90% confluence. The culture medium is removed and the cells are harvested on ice from the dish, by scraping in 20 ml cold HEPES 10 mM (pH 7.5) supplemented with 0.1% fatty acid-free bovine serum albumin (BSA) and protease inhibitors cocktail (one tablet per 50 ml, Roche Diagnostics, Rotkreuz). […] The protein concentration is determined using the Bio Rad Protein Assay and human IgG as standard. […]
The selection of the clones to be tested in the GTPγS assay is based on the real time PCR assays. […] The plates are then centrifuged for 10 minutes at 2000 rpm and counted with a TopCount instrument (Packard). […]
The compounds mentioned in this application are tested for specificity, e.g. the activity they have in the parental cell line prior transformation with the S1P4 cDNA and for selectivity on CHO cells lines transformed with the S1P1, S1P2, S1P3, and S1P5. […] For example, S1P4 specific and selective compounds may have an EC50 (apparent EC50) measured at S1P4 that is 10×, preferably 100× lower that that measured in wild type CHO cells or In cell expressing any of the other four S1P receptors.

S1P1 = target: T1, S1P1 (Homo sapiens, UniProt P21453); experiment: GTPγS binding assay, S1P1; settings: CHO cells expressing S1P1
T1 construct: expressed in transfected cells
From the text: (§1) Human S1P1 (GenBank™ accession number M31210) and S1P3 (GenBank™ accession number X83864) cDNA containing the myc sequence in front to the human S1P1 and S1P3 sequences are inserted in the pcDNA 3.1 vector. The vectors are sequenced to completion to confirm the correctness of the construct. The human S1P2 (GI: 4090955, TREMBL: 0195136) is cloned by a PCR based method. Lung cDNA (marathon cDNA) is obtained (BD Biosciences Chontech, Palo Alto, Calif. 94303, USA). Following oligonucleotides are used for the PCR reaction: forward primer CACCATGGGCAGCTTGTACTCGGAGTACCT GM CCC CAA CM GGT CCA G (1 to 45, GenBank™ accession number AF034780) and reverse primer 5′-GATTCAGACCACCGTGTTGCCCTCCAG (1062 to 1039, GenBank™ accession number AF034780), the initiation of the translation (ATG) and the stop codon are underlined. […] The amplified product of around 1100 bp is analyzed by standard agarose gel-electrophoresis. […]
(§2) Membrane proteins are prepared from wild type CHO-K1 and the CHO cell clones expressing human S1P4. […] The protein concentration is determined using the Bio Rad Protein Assay and human IgG as standard. […]

S1P2 = target: T2, S1P2 (Homo sapiens, UniProt O95136); experiment: GTPγS binding assay, S1P2; settings: CHO cells expressing S1P2
T2 construct: expressed in transfected cells
From the text: as §1, §2

Measured: EC50

T2 sequence (O95136 whole entry): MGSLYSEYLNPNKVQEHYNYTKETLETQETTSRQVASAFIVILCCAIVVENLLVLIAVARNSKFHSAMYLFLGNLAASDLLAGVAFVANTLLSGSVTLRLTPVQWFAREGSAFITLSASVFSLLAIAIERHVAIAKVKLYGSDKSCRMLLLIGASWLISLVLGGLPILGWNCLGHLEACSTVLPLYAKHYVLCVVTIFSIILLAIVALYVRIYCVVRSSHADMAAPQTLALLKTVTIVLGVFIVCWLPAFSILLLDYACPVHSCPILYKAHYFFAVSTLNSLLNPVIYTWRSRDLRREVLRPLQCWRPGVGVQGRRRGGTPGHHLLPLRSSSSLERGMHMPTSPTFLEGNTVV
T1 sequence (P21453 whole entry): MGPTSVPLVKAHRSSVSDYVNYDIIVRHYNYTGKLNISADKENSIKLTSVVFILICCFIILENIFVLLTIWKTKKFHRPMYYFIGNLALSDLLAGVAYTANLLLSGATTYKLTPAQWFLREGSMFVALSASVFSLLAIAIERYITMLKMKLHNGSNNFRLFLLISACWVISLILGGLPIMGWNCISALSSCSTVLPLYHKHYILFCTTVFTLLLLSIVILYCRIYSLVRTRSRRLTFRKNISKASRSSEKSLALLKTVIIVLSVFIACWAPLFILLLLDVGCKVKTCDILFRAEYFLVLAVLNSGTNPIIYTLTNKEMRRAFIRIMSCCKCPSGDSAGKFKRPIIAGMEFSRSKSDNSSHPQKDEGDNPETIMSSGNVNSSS

NC(CNC(=O)c1cc2c(-c3ccccc3Cc3ccccc3)cccc2[nH]1)C(=O)O (stereo not drawn) [Example 2]
> 10 µM: all assays above
